From patent US11684067B2, “Generation of peroxyformic acid through polyhydric alcohol formate” (priority 2014, dated 2023)
Like-named read-outs stand apart in the source and are kept apart here.

How the values were obtained:
[1] = system: Bacillus subitilisATCC 19659; assay: Sporicidal activity of ester PFA versus POAA (Example 21); assay type: cell-based, Bacillus subtilis; conditions: for Average CFU/mL / Log10 Growth / Log10 Reduction: 20°C, dirty
Text: Bacillus pathogens were used to evaluate the micro efficacy of ester PFA generated according to methods of the present invention in comparison to POAA.

Various pathogens = assay type: cell-based
[2] = cited from earlier work
[3] = system: Bacillus subitilisATCC 19659; assay: Sporicidal activity of ester PFA versus POAA (Example 23); assay type: cell-based, Bacillus subtilis; conditions: 20°C, dirty
Text: Additional Bacillus pathogens were used to evaluate the micro efficacy of ester PFA generated according to methods of the present invention in comparison to POAA.

[4] = system: P. aeruginosa ATCC 15442 biofilm; assay: Biofilm disinfectant efficacy, CDC Biofilm Reactor, Single Tube Method (ASTM E2562-12, E2871-12); assay type: cell-based, Pseudomonas aeruginosa
Description: P. aeruginosa ATCC 15442 biofilm was grown on the surface of 24 polycarbonate coupons following ASTM method E2562-12: Standard Test Method for Quantification of Pseudomonas aeruginosa Biofilm Grown with High Shear and Continuous Flow using CDC Biofilm Reactor. After 48 hours of biofilm establishment, the coupons were removed from the reactor and placed into individual centrifuge tubes. Three coupons per test substance were tested for disinfectant efficacy using ASTM method E2871-12: Standard Test Method for Evaluating Disinfectant Efficacy against Pseudomonas aeruginosa Biofilm Grown in CDC Biofilm Reactor using Single Tube Method. Each coupon was exposed to 4 mL of chemistry for an exposure time of 3 hours. […] This was followed with a series of vortexing and sonicating steps to remove any biofilm from the coupon surface into the solution for plating and enumeration.
P. aeruginosa ATCC 15442 biofilm was grown on the surface of 24 polycarbonate coupons following ASTM method E2562-12: Standard Test Method for Quantification of Pseudomonas aeruginosa Biofilm Grown with High Shear and Continuous Flow using CDC Biofilm Reactor. After 48 hours of biofilm establishment, the coupons were removed from the reactor and placed into individual centrifuge tubes. […]

[5] = Laundry disinfection efficacy, EPA protocol on 100% cotton carriers (Table 38); assay type: cell-based; conditions: pH 7.7, 500 ppm hard water; for Log survivors (CFU/carrier) / Log reduction: 18 ppm, 40° C., 5 minute exposure; for Log survivors (CFU/carrier): cotton carriers; for Log reduction: vs water control
Description: The microbial efficacy of peroxyformic acid was also tested following the EPA protocol on 100% cotton carriers against a water control. The test conditions were pH 7.7, 500 ppm hard water, 40° C. and 5 minute exposure time. In comparison, the performance of peracetic acid was also tested under the same conditions.

[6] = Stability of PFA in use solution in the presence of soils, iodometric titration; assay type: physicochemical; conditions: 500 ppm PFA in 500 ppm hard water with soil load, ambient; FIG. 22
Description: To 200 g of 500 ppm hard water containing individual soil load at the desired concentration, was added PFA stock solution to target PFA concentration of 500 ppm. The resulting solution was stored under ambient conditions, and the level of PFA was monitored by iodometric titration at the specific time point.

[7] = system: Staphylococcus aureus ATCC 6538; assay: Bactericidal activity of ester PFA versus POAA, EN 1276, dirty conditions; assay type: cell-based; conditions: 20°C
Text: (§1) Additional Staphylococcus, Enterococcus and Pseudomonas pathogens were used to evaluate the micro efficacy of ester PFA generated according to methods of the present invention in comparison to POAA.

[8] = system: Enterococcus hirae ATCC 10541; assay: as above; assay type: cell-based; conditions: 20°C
Text: as §1

[9] = system: Pseudomonas aeruginosa ATCC 15442; assay: as above; assay type: cell-based; conditions: 20°C
Text: as §1

[10] = system: Bacillus subtilis ATCC 6633; assay: Sporicidal activity of ester PFA, dirty conditions (Example 20); assay type: cell-based; conditions: 5 minutes
Text: Various Bacillus and Aspergillus pathogens were used to evaluate the micro efficacy of ester PFA generated according to methods of the present invention.

[11] = 300 ppm PFA pH 6.84 / 368 ppm POAA pH 6.73 (molar equivalent), 5 minutes
[12] = 300 ppm PFA pH 6.84 / 368 ppm POAA pH 6.73 (molar equivalent), 10 minutes
[13] = 400 ppm PFA pH 7.19 / 490 ppm POAA pH 6.78 (molar equivalent), 5 minutes
[14] = 400 ppm PFA pH 7.19 / 490 ppm POAA pH 6.78 (molar equivalent), 10 minutes
[15] = 300 ppm PFA pH 6.73 / 368 ppm POAA pH 6.88, 5 minutes
[16] = 300 ppm PFA pH 6.73 / 368 ppm POAA pH 6.88, 10 minutes
[17] = 400 ppm PFA pH 6.95 / 490 ppm POAA pH 6.65, 5 minutes
[18] = 400 ppm PFA pH 6.95 / 490 ppm POAA pH 6.65, 10 minutes
[19] = Klebsiella pneumoniae ATCC 4352
[20] = Staphylococcus aureus ATCC 6538
[21] = 20 ppm PFA pH 6.61 / 24.8 ppm POAA pH 6.73, 5 minutes
[22] = 30 ppm PFA pH 6.74 / 37.6 ppm POAA pH 6.90, 5 minutes
[23] = 50 ppm PFA pH 6.60 / 62.4 ppm POAA pH 6.98, 5 minutes

## O=COO [PFA, peroxyformic acid]
[1]; 5 and 10 minutes, lower concentrations than POAA, FIG. 17
  reduction in B. subtillis spores compared with POAA: increased reduction
[1]; [11]
  Average CFU/mL: 3.25E+03 CFU/mL
  Log10 Growth: 3.51 Log10
  Log10 Reduction: 2.28 Log10
[1]; [12]
  Average CFU/mL: 4.50E+01 CFU/mL
  Log10 Growth: 1.65 Log10
  Log10 Reduction: 4.14 Log10
[1]; [13]
  Average CFU/mL: 3.45E+03 CFU/mL
  Log10 Growth: 3.54 Log10
  Log10 Reduction: 2.26 Log10
[1]; [14]
  Average CFU/mL: 1.30E+03 CFU/mL
  Log10 Growth: 3.11 Log10
  Log10 Reduction: 2.68 Log10
Various pathogens; EN 13624, 450 ppm PFA pH 6-7, Aspergillus brasiliensis ATCC 1604, passing requirement 4 log reduction
  Result: PASS
Various pathogens; EN 13624, 450 ppm PFA pH 6-7, Canidia albicans ATCC 10231, passing requirement 4 log reduction
  Result: PASS
Various pathogens; EN 13704, 450 ppm PFA pH 6-7, Bacillus subtilis ATCC 6633, passing requirement 3 log reduction
  Result: PASS
Various pathogens; EN 13727, 450 ppm PFA pH 6-7, Enterococcus hirae ATCC 10541, passing requirement 5 log reduction
  Result: PASS
Various pathogens; EN 13727, 450 ppm PFA pH 6-7, P. aeruginosa ATCC 15442, passing requirement 5 log reduction
  Result: PASS
Various pathogens; EN 13727, 450 ppm PFA pH 6-7, Staph Aureus ATCC 6538, passing requirement 5 log reduction
  Result: PASS
Various pathogens; pH 6
  Result: PASS
[2]
  pKa value: 7.2
[3]; [15]
  Average CFU/mL: >3.0E+05 CFU/mL
  Log10 Growth: >5.48 Log10
  Log10 Reduction: <2.26 Log10
[3]; [16]
  Average CFU/mL: 1.28E+05 CFU/mL
  Log10 Growth: 5.11 Log10
  Log10 Reduction: 2.63 Log10
[3]; [17]
  Average CFU/mL: >3.0E+05 CFU/mL
  Log10 Growth: >5.48 Log10
  Log10 Reduction: <2.26 Log10
[3]; [18]
  Average CFU/mL: 7.50E+04 CFU/mL
  Log10 Growth: 4.88 Log10
  Log10 Reduction: 2.86 Log10
[4]; 50 ppm PFA 15 minutes to 3 hours vs 200 ppm POAA 3 hours, FIG. 12
  anti-biofilm efficacy compared with POAA: greater anti-biofilm efficacy
[4]; 3 hours exposure, concentration lower than POAA, FIG. 11
  anti-biofilm efficacy compared with POAA: significantly greater anti-biofilm efficacy
[5]; [19]
  Log survivors (CFU/carrier): <1.00 log10 CFU/carrier
  Log reduction: >5.12
[5]; [20]
  Log survivors (CFU/carrier): 1.63 log10 CFU/carrier
  Log reduction: 5.22
[5]; 40°C, 5 minute, less than half of the dose of peracetic acid
  kill compared with peracetic acid: significant better kill than peracetic acid
[6]
  impact of soils on the stability of PFA: no impact
[7]; [21]
  Average CFU/mL: <140 CFU/mL
  Log10 Growth: <2.15 Log10
[7]; [22]
  Average CFU/mL: <140 CFU/mL
  Log10 Growth: <2.15 Log10
[7]; [23]
  Average CFU/mL: <140 CFU/mL
  Log10 Growth: <2.15 Log10
[8]; [21]
  Average CFU/mL: 6.30E + 03 CFU/mL
  Log10 Growth: 3.80 Log10
[8]; [22]
  Average CFU/mL: 2.15E + 02 CFU/mL
  Log10 Growth: 2.33 Log10
[8]; [23]
  Average CFU/mL: <140 CFU/mL
  Log10 Growth: <2.15 Log10
[9]; [21]
  Average CFU/mL: <140 CFU/mL
  Log10 Growth: <2.15 Log10
[9]; [22]
  Average CFU/mL: <140 CFU/mL
  Log10 Growth: <2.15 Log10
[9]; [23]
  Average CFU/mL: <140 CFU/mL
  Log10 Growth: <2.15 Log10
[10]; 200 ppm PFA pH 5.81, 35°C
  Log10 Growth: <2.18 Log10
  Log10 Reduction: >3.91 Log10
[10]; 250 ppm PFA pH 5.82, 35°C
  Log10 Growth: <2.18 Log10
  Log10 Reduction: >3.91 Log10
[10]; 300 ppm PFA pH 5.91, 35°C
  Log10 Growth: <2.18 Log10
  Log10 Reduction: >3.91 Log10
[10]; 350 ppm PFA pH 5.88, 35°C
  Log10 Growth: <2.18 Log10
  Log10 Reduction: >3.91 Log10
